Where two headings read alike, the source gives them in different places.
Tests used:
[1] = test system: experimental autoimmune encephalomyelitis (EAE)
Experimental: The thiazolidinone was evaluated in a mouse model of experimental autoimmune encephalomyelitis (EAE). The compound was administered orally to mice sensitized with a fragment of mouse myelin basic protein to induce EAE. Two experiments were conducted using the same protocol and neurological evaluations. Test animals were dosed for 21 days, beginning 4 hours before sensitization on Day 1. The effects of the thiazolidinone were compared to a control group of mice sensitized identically and dosed with vehicle alone. Neurological evaluations continued after cessation of drug treatment. The values reported in Tables 1 and 2 below include responses during drug treatment only.
The thiazolidinone was homogenized manually with an aliquot of warm vehicle (0.5% hydroxypropyl methylcellulose with 0.2% Tween 80in water) in glass mortar tubes and homogenizing pestle. The smooth drug paste was gradually suspended in vehicle. Mice were dosed with drug and/or vehicle, […] in groups of ten (Experiment 1) or twenty (Experiment 2). Mice were dosed from Experiment Day 1 to Day 21. A sham-sensitized group was similarly dosed with vehicle or thiazolidinone 30 mg/kg (Experiment 1).
Female mice, strain PL/J(F1)×SJL/J from Jackson Labs, were sensitized s.c. (0.05 cc×2) at the base of the tail with an emulsion containing equal parts of mouse myelin basic protein (MBP) fragment (amino acids 1-9 of the N-terminus of MBP) in saline and Difco Complete Freund's Adjuvant (CFA) fortified with heat killed desiccated Mycobacteria tuberculosis (MT). Each mouse received 300 μg of the MBP fragment (230 μg free base) and 200 μg MT followed by retrobulbar (i.v.) injection of 200 ng of B. pertussis toxin in 0.2 cc of saline. Forty-eight hours later, mice received a second injection of B. pertussis toxin. Mice in Experiment 1 were 8 to 9 weeks old; mice in Experiment 2 were 11 weeks old.
Animals were weighed and evaluated for symptoms of EAE before sensitization and frequently for 21 days. EAE score: (0.5=slight limp tail, 1=limp tail or slow to right, 1.5=slight limp tail and slow to right, 2=paresis/mild paralysis or incontinence, 2.5=mild paralysis and slow to right or complete paralysis (one hind limb), 3=hind limb paralysis (both), 3.5=hind limb paralysis (both) and limp torso; 4=additional fore limb paralysis, 4.5=head movement only, 5=moribund, death after previous EAE symptoms). Evaluators were blinded as to drug treatments and previous behavioral scores.
Disease symptoms were compared among groups for EAE severity, incidence, time to onset, cumulative score, deaths, and weight loss. Peak EAE score: the mean of highest score of each mouse in a group, independent of duration of symptoms; EAE incidence: the mean number of mice showing symptoms of EAE, defined as having EAE scores on any three consecutive days that total≥3.0. EAE deaths: An animal that died must have presented previous evidence of an EAE score greater than 0.5; EAE onset: the first of a 3-day series scoring a total of≥3.0. A Cumulative EAE score is calculated for each animal. A mean of all animals' cumulative score is then determined for each day. Maximum weight loss: the mean of the lowest weight for each animal in a group. (Note: The Cumulative EAE score and the Maximum weight loss can be influenced by death which eliminates severely diseased animals. The number of days that animals are scored also affects the cumulative score and can only be compared "within-trial"). Mice that die from dosing trauma or with no previous symptoms of EAE are deleted from the study. Experimental groups were assumed to be similar and were compared for statistical significance by a two-tailed t-test (p≤0.05).

NMDA-induced injury = conditions: for percent protection against NMDA-induced injury: 15 minutes and 2.25 hours after NMDA
Experimental: Intrastriatal injections of NMDA (15 nmol/0.5 μL) were performed in male and female Sprague-Dawley rat pups (Charles River Laboratory, Portage, Mich.) on Postnatal Day (PND) 7. The animals were anesthetized with ether, and the calvarium was exposed by a midline incision through the skin. The rat pups were placed in a plaster of paris mold that was secured to a small animal stereotaxic instrument (Kopf Instruments). NMDA (Sigma) was dissolved in 0.1 M phosphate-buffered saline (PBS) adjusted to pH 7.4 with 1 N NaOH. Injections of NMDA ([…]) were placed in the middle of the right posterior corpus striatum (coordinates relative to Bregma; AP -2.0 mm, ML 2.5 mm, at a depth of 4.0 mm from the dura) with a 26-gauge Hamilton syringe. The syringe was left in place for 2 minutes following the injections to limit leakage. Temperature of the animals was kept constant after surgery in a thermostatically controlled environment (HovaBator chick incubator; BFG Corp., Savannah, Ga.) set at 35° C. to 36° C. for 1 hour after the last drug or vehicle injection. Drug solutions were prepared in PBS and injected intraperitoneally (0.05 mL volume) 15 minutes, and 2.25 hours after intrastriatal injection of NMDA. Control animals received equal volumes of PBS.
After surgery, all animals were returned to the mothers for 5 days, and decapitated on PND 12. The brains were removed, the cerebral hemispheres were separated, and wet weights of each hemisphere were determined individually. Differences of the hemispheric weights were compared for each animal using the formula: 100×(C-I/C)=percent damage, a value that indicates the severity of damage of the injected (I) cerebral hemisphere relative to that of the uninjected contralateral (C) hemisphere. Percent protection is used to indicate the relative protection of the neuroprotective compound compared to the control and was calculated as: 100×[1-(% damagetreated /% damagecontrol)]. Data were expressed as mean percent damage±S.E.M. in all groups. Independent t-tests were used for statistical comparisons.

[2] = sensitized, 30 mg oral, (a) deaths designated due to EAE
[3] = sensitized, 30 mg oral, (b) deaths due to unknown causes removed

CC(C)(C)c1cc(/C=C2\SC(N)=NC2=O)cc(C(C)(C)C)c1O [CI-1004, (Z)-5-[[3,5-bis(1,1-dimethylethyl)-4-hydroxyphenyl]methylene]-2-imino-4-thiazolidinone methanesulfonate]
deaths at ≤Day 10 ([1]; mouse, in vivo, 30 mg/kg): three deaths
Cumulative Score ([1]; sensitized, 3 mg oral): 20.3 ± 1.7
Deaths ([1]; sensitized, 3 mg oral): 2/10
EAE Incidence ([1]; sensitized, 3 mg oral): 10/10
EAE Onset ([1]; sensitized, 3 mg oral): 12.2 ± 0.3 days
EAE Peak Score ([1]; sensitized, 3 mg oral): 3.7 ± 0.3
Cumulative Score ([1]; sensitized, 10 mg oral): 10.9 ± 1.7
Deaths ([1]; sensitized, 10 mg oral): 2/10
EAE Incidence ([1]; sensitized, 10 mg oral): 7/10
EAE Onset ([1]; sensitized, 10 mg oral): 12.1 ± 1.5 days
EAE Peak Score ([1]; sensitized, 10 mg oral): 3.0 ± 0.6
daily EAE scores, incidence, cumulative EAE scores, weight loss ([1]; sensitized, 10 mg/kg): showed a suggestion of inhibition of daily EAE scores, reduced incidence, cumulative EAE scores, and weight loss
Cumulative Score [1, 2]: 10.9 ± 3.4
Deaths [1, 2]: 3/9
EAE Incidence [1, 2]: 7/9
EAE Onset [1, 2]: 12.7 ± 2.2 days
EAE Peak Score [1, 2]: 3.1 ± 0.6
Cumulative Score [1, 3]: 9.4 ± 3.4
Deaths [1, 3]: 0/6
EAE Incidence [1, 3]: 4/6
EAE Onset [1, 3]: 16.0 ± 2.1 days
EAE Peak Score ([1]; sensitized, 30 mg oral, (b) deaths due to unknown causes removed, p < 0.05): 2.1 ± 0.6
overall EAE symptoms ([1]; sensitized, 30 mg/kg, Method A): no significant reduction in overall EAE symptoms
peak EAE score and weight loss ([1]; sensitized, 30 mg/kg, Method B): significant reduction in the peak EAE score and weight loss
daily EAE scores Days 10 to 21 ([1]; sensitized, 30 mg/kg, Methods A and B): tendency to reduced daily EAE scores from Days 10 to 21, although a statistically significant reduction was seen only on Day 15 (p≤0.05)
EAE scores versus vehicle controls to Day 21 ([1]; sensitized, 3 or 10 mg/kg): did not show significantly reduced EAE scores
Cumulative Score ([1]; sham-sensitized, 30 mg oral): 1.4 ± 0.6
Deaths ([1]; sham-sensitized, 30 mg oral): 0/9
EAE Incidence ([1]; sham-sensitized, 30 mg oral): 0/9
EAE Peak Score ([1]; sham-sensitized, 30 mg oral): 0.8 ± 0
EAE symptoms and deaths in sham-sensitized mice ([1]; sham-sensitized, 30 mg/kg): showed little symptoms of disease and no deaths
percent protection against NMDA-induced injury (NMDA-induced injury; 2×10 mg/kg i.p., p<0.04): 28.1±9.2%
percent protection against NMDA-induced injury (NMDA-induced injury; 2×30 mg/kg i.p., p<0.001): 49±8.2%
survival to PND 12 (NMDA-induced injury; rat, in vivo, 30 mg/kg): One animal dosed with thiazolidinone (2×30 mg/kg) did not survive to PND 12

Source: patent publication US5912259A, “Method for treating and preventing neurodegenerative disorders by administering a thiazolidinone” (Warner-Lambert Company, priority 1998, dated 1999)
